{"source": "patent US8715368B2", "about": "“Thiophene azo dyes and laundry care compositions containing the same” (The Procter & Gamble Company, priority 2010, dated 2014)", "data": [{"assay": "Aqueous Partition Value of a dye (water/1-octanol partitioning, absorbance at λmax)", "type": "physicochemical", "conditions": "deionized water/1-octanol 10.0 mL each, APV=(Af/Ai)×100%", "description": "Dissolve in deionized water to a final volume of 10.0 mL an amount of dye sufficient to provide a solution absorbance value between 0.25 and 1.0, said absorbance being determined at the dye λmax between 400 nm and 750 nm, using a cuvette with 1.0 cm path length. Measure the absorbance of the sample at the dye λmax in a UV/Vis spectrophotometer, then transfer the entire 10.0 mL solution to a 50.0 mL plastic centrifuge tube. Add 10.0 mL of 1-octanol, cap the tube, and mix vigorously for 30 seconds using a Vortex™ mixer. Leave the tube standing undisturbed until the layers cleanly phase separate.\nUsing a transfer pipette, withdraw an aliquot of the aqueous (bottom) layer and transfer it to a cuvette with 1.0 cm path length for spectrophotometric analysis. Analyze the solution as before, and quantify the absorbance loss at λmax as “% of Dye Remaining in Aqueous Layer” as detailed below: % of Dye Remaining in Aqueous Layer=Aqueous Partition Value (APV)=(Af/Ai)×100% wherein Ai is the initial solution absorbance at λmax and Af is the final solution absorbance at λmax. II. Method for Determining Hueing Efficiency for Detergents • a.) Two 25 cm×25 cm fabric swatches of 16 oz white cotton interlock knit fabric (270 g/square meter, brightened with Uvitex BNB fluorescent whitening agent, from Test Fabrics. P.O. Box 26, Weston, Pa., 18643) are obtained. • b.) Prepare two one liter aliquots of tap water containing 1.55 g of AATCC standard heavy duty liquid (HDL) test detergent. • c.) Add a sufficient amount the dye to be tested to one of the aliquots from Step b.) above to produce an aqueous solution absorbance of 1 AU. • d.) Wash one swatch from a.) above in one of the aliquots of water containing 1.55 g of AATCC standard heavy duty liquid (HDL) test detergent and wash the other swatch in the other aliquot. Such washing step should be conducted for 30 minutes at room temperature with agitation. After such washing step separately rinse the swatches in tap water and air dry the swatches in the dark. • e.) After rinsing and drying each swatch, the hueing efficiency, DE*eff, of the dye is assessed by determining the L*, a*, and b* value measurements of each swatch using a Hunter LabScan XE reflectance spectrophotometer with D65 illumination, 10° observer and UV filter excluded. The hueing efficiency of the dye is then calculated using the following equation: DE*eff=((L*c−L*s)^2+(a*c−a*s)^2+(b*c−b*s)^2)^1/2 • wherein the subscripts c and s respectively refer to the L*, a*, and b* values measured for the control, i.e., the fabric sample washed in detergent with no dye, and the fabric sample washed in detergent containing the dye to be screened. III. Method for Determining Wash Removability • a.) Prepare two separate 150 ml aliquots of HDL detergent solution, according to AATCC Test Method 61-2003, Test 2A and containing 1.55 g/liter of the AATCC HDL formula in distilled water. • b.) A 15 cm×5 cm sample of each fabric swatch from the Method for Determining of Hueing Efficiency For Detergents described above is washed in a Launderometer for 45 minutes at 49° C. in 150 ml of a the HDL detergent solution prepared according to Step 11. a.) above. • c.) The samples are rinsed with separate aliquots of rinse water and air dried in the dark, and then L*, a*, and b* value measurements of each swatch are taken using a Hunter LabScan XE reflectance spectrophotometer with D65 illumination, 10° observer and UV filter excluded. The amount of residual coloration is assessed by measuring the DE*res, calculated using the following equation: DE*res=((L*c−L*s)^2+(a*c−a*s)^2+(b*c−b*s)^2)^1/2 • wherein the subscripts c and s respectively refer to the L*, a*, and b* values measured for the control, i.e., the fabric sample initially washed in detergent with no dye, and the fabric sample initially washed in detergent containing the dye to be screened. The wash removal value for the dye is then calculated according to the formula: % removal=100×(1−DE*res/DE*eff). C. Test Results […]", "units": {"% Dye in Water Layer": "%"}, "values": [{"smiles": "COc1cc(/N=N/c2sc(C#N)c(C)c2C#N)c(C)cc1N(CCn1cc[n+](C)c1)CCn1cc[n+](C)c1", "note": "[Example 1]", "% Dye in Water Layer": 97}, {"smiles": "Cc1cc(N(CCn2cc[n+](C)c2)CCn2cc[n+](C)c2)ccc1/N=N/c1sc(C#N)c(C)c1C#N", "note": "[Example 2]", "% Dye in Water Layer": 83}, {"smiles": "CCN(CC[N+](CC)(CC)CC)c1ccc(/N=N/c2sc(C#N)c(C)c2C#N)c(C)c1", "note": "[Example 7]", "% Dye in Water Layer": 15}, {"smiles": "CCN(CCOCCOCCOCCOCC[N+](CC)(CC)CC)c1ccc(/N=N/c2sc(C#N)c(C)c2C#N)c(C)c1", "note": "[Example 12]", "% Dye in Water Layer": 15}, {"smiles": "CC[N+](CC)(CC)CCOCCOCCN(CCOCC[N+](CC)(CC)CC)c1cc(C)c(/N=N/c2sc(C#N)c(C)c2C#N)cc1OC", "note": "[Example 18]", "% Dye in Water Layer": 49}, {"smiles": "CC[N+](CC)(CC)CCOCCOCCN(CCOCC[N+](CC)(CC)CC)c1cc(OC)c(/N=N/c2sc(C#N)c(C)c2C#N)cc1OC", "note": "[Example 19]", "% Dye in Water Layer": 78}, {"smiles": "COc1cc(/N=N/c2sc(C#N)c(C)c2C#N)c(C)cc1N(CCOCCOCC[N+](C)(C)CCO)CCOCC[N+](C)(C)CCO", "note": "[Example 21]", "% Dye in Water Layer": 75}, {"smiles": "COc1cc(/N=N/c2sc(C#N)c(C)c2C#N)c(C)cc1N(CCOCCOCC[N+](CCO)(CCO)CCO)CCOCC[N+](CCO)(CCO)CCO", "note": "[Example 22]", "% Dye in Water Layer": 56}, {"smiles": "CC[N+](CC)(CC)CCOCCOCCN(CCOCC[N+](CC)(CC)CC)c1ccc(/N=N/c2sc(C#N)c(C)c2C#N)c(C)c1", "note": "[Example 35]", "% Dye in Water Layer": 66}, {"smiles": "CC[N+](CC)(CC)CCN(CC[N+](CC)(CC)CC)c1ccc(/N=N/c2sc(C#N)c(C)c2C#N)c(C)c1", "note": "[Example 36]", "% Dye in Water Layer": 94}]}]}
